Assay: recombinant UMI read abundance after kanamycin selection (control-corrected) (log10(CPM+1)); higher = more efficient recombination; extreme values may be limits of the assay; sequences stand for … in AGTGCAGAGAAAATCGGCCAGTTTTCTCTGCCTGCAGTCCGCATGCCGTGGGACCCCTTGGGTTCTAACCTGTTGCCTAGATTTATGCAGCGGACTGCCTTTCTCCCAAAGTGATAAACCGG…AGGTTGGTTTCACT; site = the 11-nt donor
In short: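 Two replicates each of selected and unselected plating were used in this pooled Escherichia coli screen of donor and donor-binding-loop pairs for the IS621 bridge recombinase. Selection was with IPTG (0.07 mM) and kanamycin. Counts of recombinant UMIs, amplified across the donor–target junction, were converted to CPM, averaged, scaled by control-derived factors and reported as log10(CPM+1).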
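Note: IS621 bridge recombinase in Escherichia coli cells against a fixed T5 target plasmid.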

Sequence	recombinant UMI read abundance (log10)
TGGCCGGCATGGACCGGTTTTCCCGGTAATCCGTATTTGGG (site TGGCCGGCTAC)	0.0282
TGGCCGGCATGGACCGGTTTTCCCGGTAATCCGTATTTGGG (site TGGCCGGCTCC)	0.059
TGGCCGGCATGGACCGGTTTTCCCGGTAATCCGTATTTGGG (site TGGCCGGCTGC)	0
TGGCCGGCATGGACCGGTTTTCCCGGTAATCCGTATTTGGG (site TGGCCGGCTTC)	0.00405
TGGCCGGCATGGACCGGTTTTCCCGGTAATCCGTATTTGTC (site TGGCCGGCTGA)	0.815
TGGCCGGCATGGACCGGTTTTCCCGGTAATCCGTATTTGTC (site TGGCCGGCTGC)	0
TGGCCGGCATGGACCGGTTTTCCCGGTAATCCGTATTTGTC (site TGGCCGGCTGG)	0
TGGCCGGCATGGACCGGTTTTCCCGGTAATCCGTATTTGTC (site TGGCCGGCTGT)	0
TGGCGGGCATGGACCGGTTTTCCCGGTAATCCGTATTTGGC (site TGGCAGGCTGC)	1.38
TGGCGGGCATGGACCGGTTTTCCCGGTAATCCGTATTTGGC (site TGGCCGGCTGC)	0.00581
TGGCGGGCATGGACCGGTTTTCCCGGTAATCCGTATTTGGC (site TGGCGGGCTGC)	1.79
TGGCGGGCATGGACCGGTTTTCCCGGTAATCCGTATTTGGC (site TGGCTGGCTGC)	1.01
TGGCGGGCATGGACCGGTTTTCCCGGTAATCCGTATTTGTT (site TGGCGGGCTAA)	0.701
TGGCTCCCATGGACCGGTTTTCCCGGTAATCCGTATTTGGT (site TGGCTCCCTAC)	0.203
TGGCTGGCATGGACCGGTTTTCCCGGTAATCCGTATTTGGC (site TGGCAGGCTGC)	0
TGGCTGGCATGGACCGGTTTTCCCGGTAATCCGTATTTGGC (site TGGCCGGCTGC)	0
TGGCTGGCATGGACCGGTTTTCCCGGTAATCCGTATTTGGC (site TGGCGGGCTGC)	0
TGGCTGGCATGGACCGGTTTTCCCGGTAATCCGTATTTGGC (site TGGCTGGCTGC)	1.33
TGGGCAACATGGACCGGTTTTCCCGGTAATCCGTATTTGTG (site TGGGCAACTCA)	0.0056
TGGGCACCATGGACCGGTTTTCCCGGTAATCCGTATTTGCA (site AGGGCACCTTG)	0.00499
TGGGCACCATGGACCGGTTTTCCCGGTAATCCGTATTTGCA (site CGGGCACCTTG)	0.00478
TGGGCACCATGGACCGGTTTTCCCGGTAATCCGTATTTGCA (site GGGGCACCTTG)	0
TGGGCACCATGGACCGGTTTTCCCGGTAATCCGTATTTGCA (site TGGGCACCTTG)	0.00258
TGGGCGGCATGGACCGGTTTTCCCGGTAATCCGTATTTGAT (site TGGGCGGCTAT)	1.11
TGGTAAGCATGGACCGGTTTTCCCGGTAATCCGTATTTGGC (site TGGTAAGCTGC)	2.86

Sequence	recombinant UMI read abundance (log10)
TGGTAATCATGGACCGGTTTTCCCGGTAATCCGTATTTGTG (site TGGTAATCTCA)	1.65
TGGTCACCATGGACCGGTTTTCCCGGTAATCCGTATTTGTC (site GTACTCACTCC)	0.00879
TGGTGACCATGGACCGGTTTTCCCGGTAATCCGTATTTGTC (site TGGTGACCTGA)	0
TGTAAACCATGGACCGGTTTTCCCGGTAATCCGTATTTGAC (site TGTAAACCTGT)	0
TGTAAACCATGGACCGGTTTTCCCGGTAATCCGTATTTGAC (site TGTACACCTGT)	0
TGTAAACCATGGACCGGTTTTCCCGGTAATCCGTATTTGAC (site TGTAGACCTGT)	0
TGTAAACCATGGACCGGTTTTCCCGGTAATCCGTATTTGAC (site TGTATACCTGT)	0
TGTAAGACATGGACCGGTTTTCCCGGTAATCCGTATTTGGC (site TGTAAGACTGC)	0
TGTACAACATGGACCGGTTTTCCCGGTAATCCGTATTTGAG (site TGTACAACTCT)	0.0145
TGTACACCATGGACCGGTTTTCCCGGTAATCCGTATTTGAA (site TGTACACCTAT)	0.0146
TGTACACCATGGACCGGTTTTCCCGGTAATCCGTATTTGAA (site TGTACACCTCT)	0.00905
TGTACACCATGGACCGGTTTTCCCGGTAATCCGTATTTGAA (site TGTACACCTGT)	0
TGTACACCATGGACCGGTTTTCCCGGTAATCCGTATTTGAA (site TGTACACCTTT)	0.0198
TGTACACCATGGACCGGTTTTCCCGGTAATCCGTATTTGAT (site TGTACACCTAT)	0.00557
TGTACACCATGGACCGGTTTTCCCGGTAATCCGTATTTGAT (site TGTACACCTCT)	0
TGTACACCATGGACCGGTTTTCCCGGTAATCCGTATTTGAT (site TGTACACCTGT)	0
TGTACACCATGGACCGGTTTTCCCGGTAATCCGTATTTGAT (site TGTACACCTTT)	0.00971
TGTACCCCATGGACCGGTTTTCCCGGTAATCCGTATTTGAC (site TGTACACCTGT)	0
TGTACCCCATGGACCGGTTTTCCCGGTAATCCGTATTTGAC (site TGTACCCCTGT)	1.52
TGTACCCCATGGACCGGTTTTCCCGGTAATCCGTATTTGAC (site TGTACGCCTGT)	0
TGTACCCCATGGACCGGTTTTCCCGGTAATCCGTATTTGAC (site TGTACTCCTGT)	0.00417
TGTACTCCATGGACCGGTTTTCCCGGTAATCCGTATTTGAC (site TGTACACCTGT)	0
TGTACTCCATGGACCGGTTTTCCCGGTAATCCGTATTTGAC (site TGTACCCCTGT)	0.817
TGTACTCCATGGACCGGTTTTCCCGGTAATCCGTATTTGAC (site TGTACGCCTGT)	0
TGTACTCCATGGACCGGTTTTCCCGGTAATCCGTATTTGAC (site TGTACTCCTGT)	0

Sequence	recombinant UMI read abundance (log10)
TGTAGTGCATGGACCGGTTTTCCCGGTAATCCGTATTTGCG (site TGTAGTGCTCG)	0.963
TGTCCCCCATGGACCGGTTTTCCCGGTAATCCGTATTTGTA (site TGTACCCCTTA)	0.013
TGTCCCCCATGGACCGGTTTTCCCGGTAATCCGTATTTGTA (site TGTCCCCCTTA)	0.0699
TGTCCCCCATGGACCGGTTTTCCCGGTAATCCGTATTTGTA (site TGTGCCCCTTA)	0.0174
TGTCCCCCATGGACCGGTTTTCCCGGTAATCCGTATTTGTA (site TGTTCCCCTTA)	0.0128
TGTCTAACATGGACCGGTTTTCCCGGTAATCCGTATTTGGC (site TGTCTAACTGC)	0.011
TGTCTATCATGGACCGGTTTTCCCGGTAATCCGTATTTGAC (site TGTCTATCTGT)	0
TGTGATACATGGACCGGTTTTCCCGGTAATCCGTATTTGCC (site TGTGATACTGG)	0
TGTGATTCATGGACCGGTTTTCCCGGTAATCCGTATTTGTG (site TGTGATTCTCA)	0.304
TGTGCAGCATGGACCGGTTTTCCCGGTAATCCGTATTTGGT (site TGTGCAGCTAC)	0.0104
TGTGCGTCATGGACCGGTTTTCCCGGTAATCCGTATTTGGT (site TGTGCGTCTAC)	0.348
TGTGGAGCATGGACCGGTTTTCCCGGTAATCCGTATTTGGC (site TGTGGAGCTGC)	1.6
TGTGGTACATGGACCGGTTTTCCCGGTAATCCGTATTTGGC (site TGTGGTACTGC)	0.698
TGTGTAACATGGACCGGTTTTCCCGGTAATCCGTATTTGGG (site TGTGTAACTCC)	0.0344
TGTGTATCATGGACCGGTTTTCCCGGTAATCCGTATTTGAT (site TGTGTATCTAT)	0.398
TGTTATACATGGACCGGTTTTCCCGGTAATCCGTATTTGCA (site TGTTATACTTG)	1.64
TGTTCAGCATGGACCGGTTTTCCCGGTAATCCGTATTTGTA (site TGTTCAGCTTA)	0.141
TGTTCCACATGGACCGGTTTTCCCGGTAATCCGTATTTGTA (site TGTTCCACTTA)	0.225
TGTTCCACATGGACCGGTTTTCCCGGTAATCCGTATTTGTA (site TGTTCCCCTTA)	0.00983
TGTTCCACATGGACCGGTTTTCCCGGTAATCCGTATTTGTA (site TGTTCCGCTTA)	0.0123
TGTTCCACATGGACCGGTTTTCCCGGTAATCCGTATTTGTA (site TGTTCCTCTTA)	0.0149
TGTTCCGCATGGACCGGTTTTCCCGGTAATCCGTATTTGGC (site TGTTCCGCTGC)	0.484
TGTTCCTCATGGACCGGTTTTCCCGGTAATCCGTATTTGTA (site TGTTCCACTTA)	0.0142
TGTTCCTCATGGACCGGTTTTCCCGGTAATCCGTATTTGTA (site TGTTCCCCTTA)	0.00558
TGTTCCTCATGGACCGGTTTTCCCGGTAATCCGTATTTGTA (site TGTTCCGCTTA)	0
